In US11015200B2, “Antisense-induced exon exclusion in myostatin” (Sarepta Therapeutics, Inc., priority 2015, dated 2021):
{TEG} = triethylene glycol spacer

Key:
[1] = test system: exon 2 of the human myostatin gene (huMSTN); test: Exon 2 skipping by RT-PCR in nucleofected primary human myoblasts; type: cell-based; conditions: primary human myoblasts nucleofected with PMO at 10, 3, 1, 0.3 μM, overnight, concentration inducing 50% exon skipping
Experimental: (§1) In vitro experiments were performed to investigate the ability of antisense oligonucleotides designed and prepared as described above to decrease the expression of exon 2 containing myostatin pre-mRNA. Both human rhabdomyosarcoma cells (RD cells; ATCC CCL-136) and primary human myoblasts were used in the experiments as noted. RD cells or primary human skeletal myoblasts were nucleofected with PMOs at 10, 3, 1 and 0.3 μM in SG or P3 nucleofector solution, respectively, and incubated overnight at 37° C. with 5% CO2. Total RNA was isolated from the cells and RT-PCR was performed using primers Myostatin EX1 Fwd (5′ […] SEQ ID NO: 48) and Myostatin EX3 Rev (5′ […] SEQ ID NO: 49). Amplified samples were analyzed using the LabChip Caliper to determine percent exon 2 skipping. EC50 values were determined using non-linear regression analysis in GraphPad Prism. EC50 values represent the concentration at which the test PMO induces 50% exon skipping.

[2] = test system: exon 2 of the human myostatin gene (huMSTN); test: Exon 2 skipping by RT-PCR in nucleofected human rhabdomyosarcoma (RD) cells; type: cell-based; conditions: for EC50: RD cells nucleofected with PMO at 10, 3, 1, 0.3 μM, overnight, concentration inducing 50% exon skipping; for exon skipping, in words: third series, FIG. 5, RD cells, based on the calculated EC50 values
Experimental: as §1

[3] = second series (FIG. 4), * = ambiguous fit on non-linear regression

Substance: muhuD30-SD2(+30 + 1): sequence known in the prior art (US 2013/0085139), 5′ TEG, 3′ H; CAGCCCATCTTCTCCTGGTCCTGGGAAGGT (all phosphorodiamidate morpholino (PMO), 5' {TEG}) [reference compound]
- EC50 ([1]; first series (FIG. 3)): 2700 nM
- EC50 [2, 3]: 522 nM

Substance: muhuMSTN-SD2(+07 − 18): PMO, 5′ TEG, 3′ H; targeting sequence TTTTCAGTTATCACTTACCAGCCCA (all phosphorodiamidate morpholino (PMO), 5' {TEG})
- EC50 ([1]; first series (FIG. 3)): 662 nM
- EC50 [2, 3]: 0.06 nM

Substance: muhuMSTN-SD2(+10 − 15): PMO, 5′ TEG, 3′ H; targeting sequence TCAGTTATCACTTACCAGCCCATCT (all phosphorodiamidate morpholino (PMO), 5' {TEG})
- EC50 ([1]; first series (FIG. 3)): 1070 nM
- EC50 [2, 3]: 0.02 nM
- EC50 ([2]; third series (FIG. 5)): 115 nM
- exon skipping, in words [2]: most effective

Substance: huMSTN-SA2(−07 + 18): PMO, 5′ TEG, 3′ H; targeting sequence CTTGCATTAGAAAATCAGCTATAAA (all phosphorodiamidate morpholino (PMO), 5' {TEG})
- EC50 ([2]; third series (FIG. 5)): 881 nM

Substance: muhuMSTN-SD2(+09 − 16): PMO, 5′ TEG, 3′ H; targeting sequence TTCAGTTATCACTTACCAGCCCATC (all phosphorodiamidate morpholino (PMO), 5' {TEG})
- EC50 ([1]; fourth series (FIG. 6)): 549 nM

Substance: huMSTN-SA2(−01 + 25): PMO, 5′ TEG, 3′ H; targeting sequence CCATCCACTTGCATTAGAAAATCAGC (all phosphorodiamidate morpholino (PMO), 5' {TEG})
- EC50 ([1]; first series (FIG. 3)): 2160 nM

Substance: muhuMSTN-SD2(+02 − 23): PMO, 5′ TEG, 3′ H; targeting sequence TGTTATTTTCAGTTATCACTTACCA (all phosphorodiamidate morpholino (PMO), 5' {TEG})
- EC50 ([1]; fourth series (FIG. 6)): 277 nM

Substance: muhuMSTN-SD2(+09 − 15): PMO, 5′ TEG, 3′ H; targeting sequence TCAGTTATCACTTACCAGCCCATC (all phosphorodiamidate morpholino (PMO), 5' {TEG})
- EC50 ([1]; fourth series (FIG. 6)): 771 nM

Substance: huMSTN-SA2(−05 + 20): PMO, 5′ TEG, 3′ H; targeting sequence CACTTGCATTAGAAAATCAGCTATA (all phosphorodiamidate morpholino (PMO), 5' {TEG})
- EC50 ([1]; first series (FIG. 3)): 3860 nM
- EC50 ([2]; third series (FIG. 5)): 214 nM
- exon skipping, in words [2]: most effective

Substance: muhuMSTN-SD2(+09 − 14): PMO, 5′ TEG, 3′ H; targeting sequence CAGTTATCACTTACCAGCCCATC (all phosphorodiamidate morpholino (PMO), 5' {TEG})
- EC50 ([1]; fourth series (FIG. 6)): 1250 nM

Substance: muhuMSTN-SD2(+19 − 06): PMO, 5′ TEG, 3′ H; targeting sequence ACTTACCAGCCCATCTTCTCCTGGT (splice-switching; all phosphorodiamidate morpholino (PMO), 5' {TEG})
- EC50 [2, 3]: 1330 nM

Substance: muhuMSTN-SD2(+02 − 21): PMO, 5′ TEG, 3′ H; targeting sequence TTATTTTCAGTTATCACTTACCA (all phosphorodiamidate morpholino (PMO), 5' {TEG})
- EC50 ([1]; fourth series (FIG. 6)): 3990 nM

Substance: huMSTN-SA2(−01 + 24): PMO, 5′ TEG, 3′ H; targeting sequence CATCCACTTGCATTAGAAAATCAGC (all phosphorodiamidate morpholino (PMO), 5' {TEG})
- EC50 ([2]; third series (FIG. 5)): 551 nM
- exon skipping, in words [2]: most effective

Substance: muhuMSTN-SD2(+04 − 16): PMO, 5′ TEG, 3′ H; targeting sequence TTCAGTTATCACTTACCAGC (all phosphorodiamidate morpholino (PMO), 5' {TEG})
- EC50 ([1]; fourth series (FIG. 6)): 3910 nM

Substance: muhuMSTN-SD2(+09 − 11): PMO, 5′ TEG, 3′ H; targeting sequence TTATCACTTACCAGCCCATC (all phosphorodiamidate morpholino (PMO), 5' {TEG})
- EC50 ([1]; fourth series (FIG. 6)): > 10000 nM

Substance: muhuMSTN-SD2(+01 − 23): PMO, 5′ TEG, 3′ H; targeting sequence TGTTATTTTCAGTTATCACTTACC (all phosphorodiamidate morpholino (PMO), 5' {TEG})
- EC50 ([1]; fourth series (FIG. 6)): 648 nM

Substance: muhuMSTN-SD2(+09 − 12): PMO, 5′ TEG, 3′ H; targeting sequence GTTATCACTTACCAGCCCATC (all phosphorodiamidate morpholino (PMO), 5' {TEG})
- EC50 ([1]; fourth series (FIG. 6)): 4350 nM

Substance: muhuMSTN-SD2(+07 − 16): PMO, 5′ TEG, 3′ H; targeting sequence TTCAGTTATCACTTACCAGCCCA (all phosphorodiamidate morpholino (PMO), 5' {TEG})
- EC50 ([1]; fourth series (FIG. 6)): 612 nM

Substance: muhuMSTN-SD2(+06 − 16): PMO, 5′ TEG, 3′ H; targeting sequence TTCAGTTATCACTTACCAGCCC (all phosphorodiamidate morpholino (PMO), 5' {TEG})
- EC50 ([1]; fourth series (FIG. 6)): 829 nM

Substance: muhuMSTN-SD2(+01 − 24): PMO, 5′ TEG, 3′ H; targeting sequence ATGTTATTTTCAGTTATCACTTACC (all phosphorodiamidate morpholino (PMO), 5' {TEG})
- EC50 ([1]; fourth series (FIG. 6)): 642 nM

Substance: muhuMSTN-SD2(+18 − 07): PMO, 5′ TEG, 3′ H; targeting sequence CACTTACCAGCCCATCTTCTCCTGG (all phosphorodiamidate morpholino (PMO), 5' {TEG})
- EC50 ([1]; first series (FIG. 3)): 3880 nM
- EC50 [2, 3]: 1290 nM

Substance: muhuMSTN-SD2(+02 − 18): PMO, 5′ TEG, 3′ H; targeting sequence TTTTCAGTTATCACTTACCA (all phosphorodiamidate morpholino (PMO), 5' {TEG})
- EC50 ([1]; fourth series (FIG. 6)): 6210 nM

Substance: muhuMSTN-SD2(+13 − 12): PMO, 5′ TEG, 3′ H; targeting sequence GTTATCACTTACCAGCCCATCTTCT (all phosphorodiamidate morpholino (PMO), 5' {TEG})
- EC50 [2, 3]: 970 nM

Substance: huMSTN-SA2(−04 + 21): PMO, 5′ TEG, 3′ H; targeting sequence CCACTTGCATTAGAAAATCAGCTAT (all phosphorodiamidate morpholino (PMO), 5' {TEG})
- EC50 ([2]; third series (FIG. 5)): 365 nM
- exon skipping, in words [2]: most effective

Substance: huMSTN-SA2(−03 + 22): PMO, 5′ TEG, 3′ H; targeting sequence TCCACTTGCATTAGAAAATCAGCTA (all phosphorodiamidate morpholino (PMO), 5' {TEG})
- EC50 ([2]; third series (FIG. 5)): 11900 nM

Substance: muhuMSTN-SD2(+08 − 16): PMO, 5′ TEG, 3′ H; targeting sequence TTCAGTTATCACTTACCAGCCCAT (all phosphorodiamidate morpholino (PMO), 5' {TEG})
- EC50 ([1]; fourth series (FIG. 6)): 622 nM

Substance: muhuMSTN-SD2(+09 − 13): PMO, 5′ TEG, 3′ H; targeting sequence AGTTATCACTTACCAGCCCATC (all phosphorodiamidate morpholino (PMO), 5' {TEG})
- EC50 ([1]; fourth series (FIG. 6)): 2400 nM

Substance: muhuMSTN-SD2(+24 − 01): PMO, 5′ TEG, 3′ H; targeting sequence CCAGCCCATCTTCTCCTGGTCCTGG (splice-switching; all phosphorodiamidate morpholino (PMO), 5' {TEG})
- EC50 [2, 3]: 1410 nM

Substance: huMSTN-SA2(02 + 23): PMO, 5′ TEG, 3′ H; targeting sequence ATCCACTTGCATTAGAAAATCAGCT (all phosphorodiamidate morpholino (PMO), 5' {TEG})
- EC50 ([2]; third series (FIG. 5)): 1020 nM

Substance: muhuMSTN-SD2(+02 − 19): PMO, 5′ TEG, 3′ H; targeting sequence ATTTTCAGTTATCACTTACCA (all phosphorodiamidate morpholino (PMO), 5' {TEG})
- EC50 ([1]; fourth series (FIG. 6)): 3580 nM

Substance: muhuMSTN-SD2(+02 − 22): PMO, 5′ TEG, 3′ H; targeting sequence GTTATTTTCAGTTATCACTTACCA (all phosphorodiamidate morpholino (PMO), 5' {TEG})
- EC50 ([1]; fourth series (FIG. 6)): 687 nM

Substance: muhuMSTN-SD2(+05 − 16): PMO, 5′ TEG, 3′ H; targeting sequence TTCAGTTATCACTTACCAGCC (all phosphorodiamidate morpholino (PMO), 5' {TEG})
- EC50 ([1]; fourth series (FIG. 6)): 1330 nM

Substance: muhuMSTN-SD2(+04 − 21): PMO, 5′ TEG, 3′ H; targeting sequence TTATTTTCAGTTATCACTTACCAGC (all phosphorodiamidate morpholino (PMO), 5' {TEG})
- EC50 ([1]; first series (FIG. 3)): 1050 nM
- EC50 [2, 3]: 0.92 nM

Substance: muhuMSTN-SD2(+02 − 20): PMO, 5′ TEG, 3′ H; targeting sequence TATTTTCAGTTATCACTTACCA (all phosphorodiamidate morpholino (PMO), 5' {TEG})
- EC50 ([1]; fourth series (FIG. 6)): 4060 nM

Substance: muhuMSTN-SD2(+22 − 03): PMO, 5′ TEG, 3′ H; targeting sequence TACCAGCCCATCTTCTCCTGGTCCT (splice-switching; all phosphorodiamidate morpholino (PMO), 5' {TEG})
- EC50 [2, 3]: 1410 nM
